Experimental data as given in ChEMBL document CHEMBL5154943, “Crystallography-Guided Optimizations of the Keap1-Nrf2 Inhibitors on the Solvent Exposed Region: From Symmetric to Asymmetric Naphthalenesulfonamides” (J Med Chem, 2022).
In brackets after ≈: the same amount, converted by molar mass.

What was measured:
[1] = Tmax in Sprague-Dawley rat at 20 mg/kg, IG measured for 24 hrs by LC-MS analysis; format: ADME, organism-based; conditions: in vivo, po
[2] = MRT(0 to infinity) in Sprague-Dawley rat at 5 mg/kg, iv measured upto 24 hrs by LC-MS analysis; format: ADME, organism-based; conditions: in vivo
Peritoneal macrophage = test: Cytotoxicity against mouse peritoneal macrophages assessed as reduction in cell viability measured after 24 hrs by Cell Titer-Blue assay; format: functional
[3] = Aqueous solubility of the compound in PBS at pH 2 after 24 hrs by HPLC-UV analysis; format: physicochemical
[4] = Oral bioavailability in Sprague-Dawley rat at 20 mg/kg measured upto 24 hrs by LC-MS analysis; format: ADME, organism-based; conditions: in vivo
[5] = MRT (0 to infinity) in Sprague-Dawley rat at 20 mg/kg, IG measured upto 24 hrs by LC-MS analysis; format: ADME, organism-based; conditions: in vivo, po
[6] = AUC (0 to 24 hrs) in Sprague-Dawley rat at 20 mg/kg, IG measured upto 24 hrs by LC-MS analysis; format: ADME, organism-based; set-up: time < 24 hrs, dose 20 mg/kg, route ig; conditions: in vivo, po
[7] = AUC (0 to 24 hrs) in Sprague-Dawley rat at 5 mg/kg, iv measured upto 24 hrs by LC-MS analysis; format: ADME, organism-based; set-up: time < 24 hrs, dose 5 mg/kg, route iv; conditions: in vivo
[8] = Cmax in Sprague-Dawley rat at 5 mg/kg, iv measured upto 24 hrs by LC-MS analysis; format: ADME, organism-based; set-up: dose 5 mg/kg, time < 24 hrs, route iv; conditions: in vivo
[9] = Aqueous solubility of the compound in PBS at pH 7.4 after 24 hrs by HPLC-UV analysis; format: physicochemical
[10] = MRT(0 to 24 hrs) in Sprague-Dawley rat at 5 mg/kg, iv measured upto 24 hrs by LC-MS analysis; format: ADME, organism-based; conditions: in vivo
[11] = Half life in Sprague-Dawley rat at 20 mg/kg, IG measured upto 24 hrs by LC-MS analysis; format: ADME, organism-based; conditions: in vivo, po
[12] = MRT(0 to 24 hrs) in Sprague-Dawley rat at 20 mg/kg, IG measured upto 24 hrs by LC-MS analysis; format: ADME, organism-based; conditions: in vivo, po
[13] = Aqueous solubility of the compound in PBS at pH 7 after 24 hrs by HPLC-UV analysis; format: physicochemical
[14] = AUC(0 to infinity) in Sprague-Dawley rat at 20 mg/kg, IG measured upto 24 hrs by LC-MS analysis; format: ADME, organism-based; set-up: dose 20 mg/kg, time < 24 hrs, route ig; conditions: in vivo, po
Keap1/Nrf2 = Keap1/Nrf2 (Homo sapiens, UniProt Q14145); test: Inhibition of recombinant N-terminal His6-tagged human Keap1-Nrf2 (322 to 609 residues) (unknown origin) protein-protein interaction expressed in Escherichia coli (DE3) incubated for 60 mins by fluorescence anisotropy assay
Chain of Keap1/Nrf2 (Q16236 whole entry, the tested form may be a part): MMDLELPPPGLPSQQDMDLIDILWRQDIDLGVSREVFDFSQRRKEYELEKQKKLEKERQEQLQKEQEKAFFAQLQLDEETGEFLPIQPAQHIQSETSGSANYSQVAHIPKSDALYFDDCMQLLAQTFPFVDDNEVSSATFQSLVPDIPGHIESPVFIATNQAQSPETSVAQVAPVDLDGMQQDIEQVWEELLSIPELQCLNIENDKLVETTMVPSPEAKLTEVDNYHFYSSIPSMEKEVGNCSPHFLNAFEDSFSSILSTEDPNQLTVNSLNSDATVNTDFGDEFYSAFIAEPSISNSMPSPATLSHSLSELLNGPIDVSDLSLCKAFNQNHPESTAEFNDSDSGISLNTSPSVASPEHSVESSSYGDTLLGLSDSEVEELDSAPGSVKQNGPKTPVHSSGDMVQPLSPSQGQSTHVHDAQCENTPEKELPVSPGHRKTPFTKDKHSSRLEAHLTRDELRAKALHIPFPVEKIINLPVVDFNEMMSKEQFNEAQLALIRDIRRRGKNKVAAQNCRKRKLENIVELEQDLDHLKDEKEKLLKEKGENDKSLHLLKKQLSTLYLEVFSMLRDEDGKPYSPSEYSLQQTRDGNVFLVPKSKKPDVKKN
Chain of Keap1/Nrf2 (Q14145 whole entry, the tested form may be a part): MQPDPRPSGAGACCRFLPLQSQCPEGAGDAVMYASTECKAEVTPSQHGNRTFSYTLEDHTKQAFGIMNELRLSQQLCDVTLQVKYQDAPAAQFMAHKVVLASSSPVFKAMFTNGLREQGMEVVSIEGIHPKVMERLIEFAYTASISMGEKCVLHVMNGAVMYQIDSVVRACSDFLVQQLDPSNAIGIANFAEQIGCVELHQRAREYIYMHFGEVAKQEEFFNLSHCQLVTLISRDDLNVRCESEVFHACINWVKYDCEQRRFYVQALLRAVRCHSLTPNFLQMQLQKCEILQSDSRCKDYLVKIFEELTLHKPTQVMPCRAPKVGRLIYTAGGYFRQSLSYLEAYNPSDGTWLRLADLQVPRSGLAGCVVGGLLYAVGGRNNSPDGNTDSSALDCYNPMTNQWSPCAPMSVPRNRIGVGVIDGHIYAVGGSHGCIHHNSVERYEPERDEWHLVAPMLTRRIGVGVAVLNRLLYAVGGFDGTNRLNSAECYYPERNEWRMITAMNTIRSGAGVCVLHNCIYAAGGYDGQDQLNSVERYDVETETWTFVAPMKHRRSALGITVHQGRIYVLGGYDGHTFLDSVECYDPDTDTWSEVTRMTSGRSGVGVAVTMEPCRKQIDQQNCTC

[15] = Cmax in Sprague-Dawley rat at 20 mg/kg, IG measured upto 24 hrs by LC-MS analysis; format: ADME, organism-based; set-up: dose 20 mg/kg, time < 24 hrs, route ig; conditions: in vivo, po
[16] = Tmax in Sprague-Dawley rat at 5 mg/kg, iv measured upto 24 hrs by LC-MS analysis; format: ADME, organism-based; conditions: in vivo
[17] = Antiinflammatory activity against LPS-induced mouse peritoneal macrophage assessed as inhibition of TNF alpha level after 4 hrs by ELISA method; format: functional, cell-based
[18] = Antiinflammatory activity against LPS-induced mouse peritoneal macrophage assessed as suppression of NO level pretreated with LPS followed by compound addition and measured after 24 hrs by Griess reagent based assay; format: functional, cell-based
[19] = Half life in Sprague-Dawley rat at 5 mg/kg, iv measured upto 24 hrs by LC-MS analysis; format: ADME, organism-based; conditions: in vivo
[20] = AUC(0 to infinity) in Sprague-Dawley rat at 5 mg/kg, iv measured upto 24 hrs by LC-MS analysis; format: ADME, organism-based; set-up: dose 5 mg/kg, time < 24 hrs, route iv; conditions: in vivo

Tmax [1]: 1.38 h
MRT inf [2]: 5.94 h
solubility at 24 h [3]: 902 µg/mL (≈ 1180 µM)
bioavailability [4]: 19.9%
MRT inf [5]: 14 h
AUC(0-t) at 24 h [6]: 3060 ng·h/mL
AUC(0-t) at 24 h [7]: 4560 ng·h/mL
Cmax [8]: 2630 ng/mL
solubility at 24 h [9]: 49.3 µg/mL (≈ 64.4 µM)
MRT last at 24 h [10]: 4.64 h
half-life [11]: 10.9 h
MRT last at 24 h [12]: 6.71 h
solubility at 24 h [13]: 91.1 µg/mL (≈ 119 µM)
AUC(0-inf) [14]: 3700 ng·h/mL
Kd (Keap1/Nrf2): 210 nM
Cmax [15]: 708 ng/mL
Tmax [16]: 0.72 h
EC50 [17]: 1140 nM
EC50 [18]: 970 nM
t1/2 [19]: 4.31 h
AUC [20]: 4779.24 ng·h/mL
SMILES: CCN1CCN(CCC(=O)Nc2ccc(S(=O)(=O)N(CC(N)=O)c3ccc(N(CC(N)=O)S(=O)(=O)c4ccc(OC)cc4)c4ccccc34)cc2)CC1
CC50 (Peritoneal macrophage): > 100000 nM
